The text below walks through data of article PMC10892719 (Pharmaceutics, 2024).

One experiment concerns SH-SY5Y cells. As to the kind of experiment: Neuroprotection against Aβ1-42-induced toxicity, MTT. Type of experiment: cell-based, human. The conditions noted are these: Aβ1-42 1 µM, 24 h, optimized concentration of each compound. The protocol:
Cell viability, following treatment with the compounds, was determined using the colorimetric MTT (3-(4,5-dimethylthiazol-2-yl)-2,5-diphenyltetrazolium bromide) assay. The tested compounds (5a1-3, 5b1-3, 5c1-3) were dissolved in DMSO to produce stock solutions of 25 mM and stored at −20 °C. A concentration screening was performed for 0.5 µM to 20 µM final concentrations to choose the highest nontoxic concentration. SH-SY5Y human neuroblastoma cell line (ATCC-CRL-2266) was cultured in Dulbecco’s modified Eagle’s medium (DMEM) (Gibco-Invitrogen, Life Technologies Ltd., Waltham, MA, USA) with heat-inactivated fetal calf serum (10%), penicillin (50 U/mL) and streptomycin (50 µg/mL) at 37 °C with 5% CO2. Cells were plated at 0.15 × 10^6 cells/mL one day prior to the start of the experiment. The cells were then incubated with the appropriate concentration of the compounds for 24 h. After the incubation period, the cells were washed once with PBS and incubated with 200 µL MTT (0.5 mg/mL) for 2 h at 37 °C with 5% CO2. During this period, cellular dehydrogenase successfully metabolized MTT into formazan, which was then solubilized using 200 µL of 0.04 M HCl/isopropanol. Absorbance was measured at 570 nm.
To test whether the compounds have a protective effect against toxicity induced by Aβ1-42 or iron/ascorbate, the cells were pre-incubated for 1 h with each compound, followed by the addition of Aβ1-42 or iron/ascorbate and incubation for an additional 24 h. Aβ1-42 (Bachem, Torrance, CA, USA) was prepared in sterile water to produce a stock solution of 443 µM and added to the cells at a final concentration of 1 µM. Ferrous sulfate and L-ascorbic acid (Sigma Chemical Co, St. Louis, MO, USA), prepared in sterile water, were added to the medium together at a final concentration of 5 mM and 2.5 mM, respectively. For this assay, the optimal concentration of each compound was used to prevent cellular demise induced by Aβ1-42 or iron/ascorbate. Compound 5a1 was added to the medium at a 1 µM final concentration; compounds 5a2, 5a3, 5b1, 5b2 and 5c2 were added to the medium at a 2.5 µM final concentration; compounds 5c1 and 5c3 were added to the medium at a 5 µM final concentration; and compound 5b3 was added to the medium at a 10 µM final concentration. […] Controls were employed for each plate using untreated cells and Aβ1-42 or iron/ascorbate only. Cell reduction ability was normalized to the untreated condition. All data are expressed as mean ± SEM of at least three independent experiments performed in duplicate. Statistical analyses were performed for normality assessment using Shapiro–Wilk’s test followed by the Kruskal–Wallis test considering that normality was not verified. Post hoc analysis was performed using uncorrected Dunn’s test. A p value < 0.05 was considered statistically significant.
Figure 4 Neuroprotective effect of RIV-IND compounds against cellular toxicity induced by Aβ1-42 measured by MTT reduction ability on SH-SY5Y cells pretreated with […] for one hour, followed by a 24 h incubation with the optimized concentration of each compound. Results are expressed relatively to untreated cells, with the mean ± standard error of the mean (SEM) derived from three to seven independent experiments. * p < 0.05; ** p < 0.01; *** p < 0.001; **** p < 0.0001 compared to untreated cells. # p < 0.05 compared to Aβ1-42-treated cells. (The dot line indicates the decrease in cellular viability induced by Aβ).

The target in experiment [1] is T1, electric eel acetylcholinesterase (eeAChE) (Electrophorus electricus, UniProt O42275).
T1 construct: purchased Sigma-Aldrich (Steinheim, Germany)
As to the kind of experiment: AChE inhibition, adapted Ellman method. The settings on record: mean of two independent experiments ± SD, read-out: AChE Inhib IC50. Type of experiment: biochemical. The protocol:
The enzyme inhibition of electric eel acetylcholinesterase (eeAChE) and equine butyrylcholinesterase (eqBChE) by our compounds was evaluated through an adaptation of Elmman´s method using reagents from Sigma-Aldrich (Steinheim, Germany). Stock solutions of each compound (1 mg) in MeOH (1 mL) were prepared and then working solutions for each ligand were obtained by the corresponding dilution of the stock solutions. A control measurement with 5 replicates (without ligand) and a calibration curve of 5 points with 3 replicates per point was performed. The preparation of each solution involved fixed volumes of 4-(2-hydroxyethyl)-1-piperazine-ethanesulfonic acid (HEPES) and cholinesterase (eeAChE or eqBChE) with different volumes of ligand solution, and it was left to rest for 15 min immediately after adding the cholinesterase. A blank solution containing HEPES and MeOH was also prepared at the same time. […] The slope for each calibration point (absorbance versus reaction time) was determined and the inhibition for each compound was calculated by using the following equation: %Inhibition=100−(vi/v0×100) where vi is the reaction rate (slope) for each point of the calibrate with ligand and v0 is the initial reaction rate (slope) for the control point (without ligand). […] Experiments were performed twice for each compound.
On the technique in general: Ellman's reagent forms a yellow product with free thiols.

The next experiment has as its target T2, Aβ1-42 (Homo sapiens, UniProt P05067).
T2 construct: purchased Genecust, Boynes, France
As to the kind of experiment: Inhibition of Aβ1-42 self-aggregation, thioflavin T fluorescence. Type of experiment: biochemical. The conditions noted are these: Cinhibitor = 20 µM, Aβ1-42 40 µM, 37 °C, 24 h, read-out: Aβ42 Self-Aggreg. Inhib. The protocol: The Aβ peptide (Genecust, Boynes, France) was treated with 1,1,1,3,3,3-hexafluoropropan-2-ol (HFIP, Aldrich, Steinheim, Germany) and dissolved in a CH3CN/Na2CO3 (300 µM)/NaOH (250 µM) ([…], v/v/v) mixture in order to have a stable stock solution of Aβ1-42 with concentration 500 µM.
Solutions of the assayed compounds (0.5 mg/mL) were firstly prepared in 60% (v/v) DMSO/MeOH medium and then diluted in phosphate buffer (0.215 M, pH 8.0) to a concentration of 120 µM. The Aβ1-42 aggregation inhibition assays were performed according to a reported method based on the fluorescence emission of thioflavin T (ThT, Aldrich Steinheim, Germany). Therefore, Aβ1-42 (40 µM) was incubated at 37 °C for 24 h in phosphate buffer and in the presence or absence of each ligand (20 µM). Then, the samples were added to a 96-well plate with 180 µL of 5 µM ThT in 50 mM glycine-NaOH (pH 8.5) buffer. Blank samples were identically prepared for each concentration but in the absence of the peptide. The ThT fluorescence was measured at 445 nm (excitation) and 485 nm (emission). The percent of aggregation inhibition was calculated by the following equation:I% = 100 − (IFi/IF0 × 100), in which IFi and IF0 are the fluorescence intensities, in the presence and the absence of the tested compound, subtracted from the fluorescence intensities due to the respective blanks. The reported values were obtained as the mean ± SEM of two different experiments performed in duplicate.
The inhibitory capacity of the RIV-IND hybrids towards Aβ42 self-aggregation was evaluated in vitro by molecular fluorescence spectroscopy through the thioflavin T (ThT) method. In fact, since there is an increase in the absorbance and emission of ThT when it binds to amyloid fibrils, it is possible to determine the percent of Aβ42 self-aggregation (see Table 1). The assays were performed in the presence of 20 µM of inhibitor to overcome the solubility limitations of some compounds in the phosphate buffer aqueous medium.

T1 sequence (O42275 24-633): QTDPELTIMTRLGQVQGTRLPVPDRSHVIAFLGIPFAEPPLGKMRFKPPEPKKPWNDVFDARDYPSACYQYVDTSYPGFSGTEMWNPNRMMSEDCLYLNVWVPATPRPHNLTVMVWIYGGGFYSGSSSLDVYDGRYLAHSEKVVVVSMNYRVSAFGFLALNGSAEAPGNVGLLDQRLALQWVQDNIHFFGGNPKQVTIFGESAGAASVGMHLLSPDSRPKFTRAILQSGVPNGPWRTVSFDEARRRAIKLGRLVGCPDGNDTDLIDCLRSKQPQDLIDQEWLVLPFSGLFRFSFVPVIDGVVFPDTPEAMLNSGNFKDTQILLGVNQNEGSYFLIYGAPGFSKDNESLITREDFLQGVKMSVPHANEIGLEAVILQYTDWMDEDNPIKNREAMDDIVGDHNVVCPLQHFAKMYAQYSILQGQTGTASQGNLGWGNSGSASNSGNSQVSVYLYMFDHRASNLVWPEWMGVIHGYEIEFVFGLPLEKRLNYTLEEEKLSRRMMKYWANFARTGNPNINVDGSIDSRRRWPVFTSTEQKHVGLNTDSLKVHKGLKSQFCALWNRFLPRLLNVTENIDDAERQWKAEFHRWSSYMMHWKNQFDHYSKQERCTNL
T2 sequence (P05067 672-713 limits assumed): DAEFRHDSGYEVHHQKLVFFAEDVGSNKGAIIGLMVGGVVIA

Take `CCN(C)C(=O)Oc1cccc(CNC(=O)c2cc3ccccc3[nH]2)c1` [Compound 5b1, 3-((1H-indole-2-carboxamido)methyl)phenyl ethylmethylcarbamate]: the “neuroprotective effect against toxicity induced by Aβ1-42” value with SH-SY5Y cells was “able to rescue Aβ1-42-induced toxicity to levels that were not significantly different from untreated cells”. Also, the IC50 in experiment [1] was determined as 78.4 ± 0.8 µM. The inhibition at 20 µM on Aβ1-42 stood at 19.9%.
Regarding `CCN(C)C(=O)Oc1cccc(NC(=O)c2cc3cccc(O)c3[nH]2)c1` [Compound 5a3, 3-(7-Hydroxy-1H-indole-2-carboxamido)phenyl ethyl(methyl)carbamate], the “neuroprotective effect against toxicity induced by Aβ1-42” value in the experiment with SH-SY5Y cells was “also present neuroprotection”. Besides, in experiment [1], the IC50 was 10.9 ± 0.1 µM. Also, the inhibition at 20 µM at Aβ1-42 is 50.3%.

The term IC50 denotes the concentration that inhibits the measured activity by half.
